Key:
[1] = DPPH radical scavenging (antioxidative action) test; type: biochemical; conditions: rank order among Gnetin C, Gnemonocide A, D
Procedure: After 6 hours, decreases of absorbance (absorbance difference) at 517 nm of these reaction solutions were measured.

[2] = test system: hay bacillus, Escherichia coli, sake yeast, penicillium; experiment: Antimicrobial action/effect (overall statement); type: cell-based; conditions: rank order among Gnetin C, Gnemonocide A, D

Substance | order of scavenging radical action (antioxidative effect) to DPPH [1] | order of antimicrobial action of the identified ingredients [2]
Gnemonocide D | Gnetin C>Gnemonocide C≈Gnemonocide D>Gnemonocide A | Gnetin C>Gnemonocide C≈Gnemonocide D
Gnemonocide A | Gnetin C>Gnemonocide C≈Gnemonocide D>Gnemonocide A | does not show the antimicrobial action
Gnemonocide C | Gnetin C>Gnemonocide C≈Gnemonocide D>Gnemonocide A | Gnetin C>Gnemonocide C≈Gnemonocide D

Source: patent US8067036B2, “Gnetum extract” (Hosoda SHC Inc., priority 2004, dated 2011)
